Read-outs that look alike come from different tables or passages of the source.
How the values were obtained:
Hela cervix cancer cells = test: Cell viability assay (MTT), dark and blue light; assay type: cell-based, Human; conditions: for SI (vs MC3T3) HeLa Blue: blue light 458 nm; for Photosensitizing index (PI) HeLa: dark vs blue light 458 nm
Procedure, shortened: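 Two parallel arms: continuous 72 h dark exposure, or 8 h preincubation followed by 10 min blue light at 458 nm (9.6 W LEDs) and further dark incubation to 72 h. Final DMSO 0.1% (v/v); MTT formazan read at 570 nm, triplicate runs repeated at least three times.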

[1] = tested on: PSMA-negative cells (PC-3 and DU145); test: Cell viability assay (MTT), summary over PSMA-negative cancer cells; assay type: cell-based, Human; conditions: blue light 458 nm; read-out: GI50 mean over PSMA-negative cancer cells, irradiated
Procedure: (§1) Cells were grown in humidified incubators at 37° C. in 5% CO2. Murine MC3T3 osteoblast and NIH-3T3 fibroblast cells-used as non-tumor cell models-were cultured in a-MEM medium and DMEM medium supplemented with 10% fetal bovine serum (FBS) and 1% Penicillin/Streptomycin (P/S) antibiotics, respectively. Human T24 bladder, MGHU3 bladder, Scaber bladder, A549 lung, MCF7 breast, MiaPaCa2 pancreas cancer cells were cultured in DMEM medium supplemented with 10% FBS and 1% P/S antibiotics. Human ASPC-1 pancreas, PC-3 prostate, DU-145 prostate, C4-2B prostate and 22rV1 prostate cancer cells were cultured in RPMI medium supplemented with 10% FBS and 1% P/S antibiotics. Human Hela cervix and HepG2 liver cancer cells were cultured EMEM medium supplemented with 10% FBS and 1% P/S antibiotics.
(§2) MTT reagent (3-(4,5-dimethylthiazol-2-yl)-2,5-diphenyltetrazolium bromide) was used to determine cell death as originally described by Mosmann. […] The concentration of the complexes was calculated based on the elemental composition of the complexes determined by the elemental analyses. […] After solubilization with 500 μL of DMSO, formazan was quantified spectrophotometrically with a microplate reader at 570 nm absorbance (ClarioSTAR, BMG LabTech). […] All the results were calculated from data obtained in at least three independent experiments performed in triplicate. […]

[2] = tested on: PSMA-positive cells (C4-2b and 22Rv1); test: Cell viability assay (MTT), summary over PSMA-positive cancer cells; assay type: cell-based, Human; conditions: blue light 458 nm; read-out: GI50 mean over PSMA-positive cancer cells, irradiated
Procedure: as §1, §2

[3] = Singlet oxygen (1O2) production, ABDA indicator, blue LED 458 nm; conditions: for depletion of the ABDA absorbance at 380 nm (1O2 production): 4.5 mWcm^−2, 5-45 min, PBS pH 7.4; for consumption of ABDA (1O2 production): 4.5 mWcm^−2
Procedure: The detection of […] generation of iridium complexes was measured with 9,10-anthracenediyl-bis(methylene)dimalonic acid (ABDA) as an ^1O2 indicator and Ru(bpy)3Cl2 as a standard according to a modified reported method. Experiments were conducted using ABDA (50 μM) in phosphate buffered solution (PBS, pH 7.4), the respective iridium complex, i.e. (I-e), (I-g), (I-h), (I-j), (II-e), (II-g), (II-h), (II-j), (III-i), (III-j), (III-k), (III-h), (IV-i), (IV-j), (IV-k), (IV-h) and Ru(bpy)3Cl2 (5 μM) in a mixture of H2O/CH3CN (50/50) with a ratio ABDA/complex of […] and a final volume of 3 mL. ABDA oxidation was monitored by UV-vis spectrophotometry. The samples were irradiated with a blue custom-made LED plate (458 nm, 4.5 mWcm^−2). During irradiation UV-vis absorption spectra were recorded at 5, 10, 15, 20, 30 and 45 min. The ^1O2 generation was followed by monitoring the absorption spectral change at 380 nm of ABDA versus time.

[4] = tested on: DU-145 prostate cancer cells (PSMA-negative); test: Cell viability assay (MTT), dark and blue light; assay type: cell-based, Human; conditions: for Photosensitizing index (PI): DU145, dark vs blue light; for SI (vs MC3T3) DU145 Blue / SI (vs NIH-3T3) DU145 Blue: blue light 458 nm
Procedure, shortened: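 Seeded cells attached overnight, were exposed to complexes for 8 h, received 10 min of 458 nm blue light (9.6 W LED array), then stayed in the dark until 72 h; parallel plates were kept dark throughout. MTT for 3 to 4 h, DMSO solubilization, absorbance at 570 nm.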

[5] = tested on: MiaPaCa2 pancreas cancer cells; test: Cell viability assay (MTT), dark and blue light; assay type: cell-based, Human; conditions: for Photosensitizing index (PI): MiaPaCa2, dark vs blue light; for GI50: read-out: GI50
Procedure, shortened: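 Viability determined by MTT assay (A570) after 72 h treatment in 0.1% DMSO, with or without a 10 min irradiation at 8 h. Data from at least three independent experiments run in triplicate.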

[6] = 8 h in the dark, blue light 458 nm 10 min, then dark up to 72 h, read-out: GI50 HeLa Blue
[7] = in the dark, 72 h, read-out: GI50 HeLa Dark
[8] = 8 h in the dark, blue light 458 nm 10 min, then dark up to 72 h, read-out: GI50 DU145 Blue
[9] = DU145, blue light, read-out: GI50
[10] = in the dark, 72 h, read-out: GI50 DU145 Dark

SMILES | GI50 (Hela cervix cancer cells; [6]) [µM] | Photosensitizing index (PI) HeLa (Hela cervix cancer cells) | GI50 (Hela cervix cancer cells; [7]) [µM] | GI50 [4, 8] [µM] | GI50 [4, 9] [µM] | Photosensitizing index (PI) [4] | GI50 ([4]; DU145, dark, read-out: GI50) [µM] | SI (vs MC3T3) DU145 Blue [4] | GI50 [4, 10] [µM] | Photosensitizing index (PI) [5] | also measured
COC(=O)c1ccc2[n+](c1)[Ir-3]13([c]4ccccc4-2)([c]2ccccc2-c2ccc(C(=O)OC)c[n+]21)[c]1n(CCCNC(=O)CCCC[C@@H]2SC[C@@H]4NC(=O)N[C@@H]42)cc[n+]1-c1cccc[n+]13.F[P-](F)(F)(F)(F)F [I-e] | 59 | 3.7 | 221 |  |  |  |  |  |  |  | SI (vs MC3T3) HeLa Blue (Hela cervix cancer cells): 0.7; SI (vs MC3T3) HeLa Dark (Hela cervix cancer cells): 0.3; SI (vs NIH-3T3) HeLa Dark (Hela cervix cancer cells): >1.1
F[P-](F)(F)(F)(F)F.O=C(CCCC[C@@H]1SC[C@@H]2NC(=O)N[C@@H]21)NCCCn1cc[n+]2[c]1[Ir-3]13([c]4ccccc4-c4ccc5ccccc5[n+]41)([c]1ccccc1-c1ccc4ccccc4[n+]13)[n+]1ccccc1-2 [I-g] | 10.8 | 4.1 | 44.3 |  |  |  |  |  |  |  | SI (vs MC3T3) HeLa Dark (Hela cervix cancer cells): 1.2
F[P-](F)(F)(F)(F)F.O=C(CCCC[C@@H]1SC[C@@H]2NC(=O)N[C@@H]21)NCCCn1cc[n+]2[c]1[Ir-3]13([c]4ccccc4-c4c5ccccc5cc[n+]41)([c]1ccccc1-c1c4ccccc4cc[n+]13)[n+]1ccccc1-2 [I-h] | 2.86 | 14.6 | 41.8 |  |  |  |  |  |  |  | SI (vs MC3T3) HeLa Blue (Hela cervix cancer cells): 1.7; SI (vs MC3T3) HeLa Dark (Hela cervix cancer cells): 1.0; SI (vs NIH-3T3) HeLa Dark (Hela cervix cancer cells): 2.4
F[P-](F)(F)(F)(F)F.O=C(CCCC[C@@H]1SC[C@@H]2NC(=O)N[C@@H]21)NCCCn1cc[n+]2[c]1[Ir-3]13([c]4ccccc4-c4sc5ccccc5[n+]41)([c]1ccccc1-c1sc4ccccc4[n+]13)[n+]1ccccc1-2 [I-k] | 6.5 | 7.8 | 50.6 |  |  |  |  |  |  |  | SI (vs NIH-3T3) HeLa Dark (Hela cervix cancer cells): 1.5
F[P-](F)(F)(F)(F)F.O=C(O)CC[C@H](NC(=O)N[C@@H](CCCCNC(=O)CCn1cc[n+]2[c]1[Ir-3]13([c]4ccccc4-c4c5ccccc5cc[n+]41)([c]1ccccc1-c1c4ccccc4cc[n+]13)[n+]1ccccc1-2)C(=O)O)C(=O)O [III-h] |  |  |  | 1.41 | 1.41 | 18.5 | 26.1 | 5.9 | 26.1 |  | GI50 [1]: 1.6 µM; GI50 [2]: 0.31 µM; depletion of the ABDA absorbance at 380 nm (1O2 production) [3]: fast depletion of the ABDA absorbance at 380 nm; SI (vs MC3T3) DU145 Dark [4]: 2.0; SI (vs NIH-3T3) DU145 Dark [4]: >3.8
F[P-](F)(F)(F)(F)F.O=C(O)CC[C@H](NC(=O)N[C@@H](CCCCNC(=O)CCn1cc[n+]2[c]1[Ir-3]13([c]4cccc5ccc6ccc[n+]1c6c45)([c]1cccc4ccc5ccc[n+]3c5c14)[n+]1ccccc1-2)C(=O)O)C(=O)O [III-i] |  |  |  | 8.2 | 8.16 | 5.6 | 45.3 | 5.0 | 45.3 |  | SI (vs NIH-3T3) DU145 Blue [4]: 6.8; SI (vs NIH-3T3) DU145 Dark [4]: >2.2
F[P-](F)(F)(F)(F)F.O=C(O)CC[C@H](NC(=O)N[C@@H](CCCCNC(=O)CCn1cc[n+]2[c]1[Ir-3]13([c]4c(sc5ccccc45)-c4cccc[n+]41)([c]1c(sc4ccccc14)-c1cccc[n+]13)[n+]1ccccc1-2)C(=O)O)C(=O)O [III-j] |  |  |  | 1.4 | 1.35 | 151.9 | 205 | 9.3 | 205 |  | consumption of ABDA (1O2 production) [3]: fast complete consumption of ABDA; depletion of the ABDA absorbance at 380 nm (1O2 production) [3]: fast depletion of the ABDA absorbance at 380 nm; SI (vs NIH-3T3) DU145 Blue [4]: 8.0; SI (vs MC3T3) DU145 Dark [4]: >1.2
F[P-](F)(F)(F)(F)F.O=C(O)CC[C@H](NC(=O)N[C@@H](CCCCNC(=O)CCn1cc[n+]2[c]1[Ir-3]13([c]4ccccc4-c4sc5ccccc5[n+]41)([c]1ccccc1-c1sc4ccccc4[n+]13)[n+]1ccccc1-2)C(=O)O)C(=O)O [III-k] |  |  |  | 2.2 | 2.18 | 7.5 | 16.3 | 15.5 | 16.3 |  | GI50 [1]: 1.6 µM; GI50 [2]: 0.31 µM; SI (vs NIH-3T3) DU145 Blue [4]: 13.8; SI (vs NIH-3T3) DU145 Dark [4]: >6.1
F[P-](F)(F)(F)(F)F.O=C(NCCCn1cc[n+]2[c]1[Ir-3]13([c]4ccccc4-c4c5ccccc5cc[n+]41)([c]1ccccc1-c1c4ccccc4cc[n+]13)[n+]1ccccc1-2)[c-]1cccc1.[Fe+2].c1cc[cH-]c1 [IV-h] |  |  |  |  |  |  |  |  |  | 24.6 | SI (vs MC3T3) ([5]; MiapaCa2, blue light): 86.2; SI (vs NIH-3T3) ([5]; MiapaCa2, blue light): 63.8; SI (vs NIH-3T3) ([5]; MiapaCa2, dark): 7.8; GI50 ([5]; MiapaCa2, dark): 1.7 µM
F[P-](F)(F)(F)(F)F.O=C(NCCCn1cc[n+]2[c]1[Ir-3]13([c]4cccc5ccc6ccc[n+]1c6c45)([c]1cccc4ccc5ccc[n+]3c5c14)[n+]1ccccc1-2)[c-]1cccc1.[Fe+2].c1cc[cH-]c1 [IV-i] |  |  |  |  |  |  |  |  |  | 5.1 | SI (vs NIH-3T3) ([5]; MiapaCa2, blue light): 48.1; GI50 ([5]; MiapaCa2, blue light): 0.37 µM
F[P-](F)(F)(F)(F)F.O=C(NCCCn1cc[n+]2[c]1[Ir-3]13([c]4c(sc5ccccc45)-c4cccc[n+]41)([c]1c(sc4ccccc14)-c1cccc[n+]13)[n+]1ccccc1-2)[c-]1cccc1.[Fe+2].c1cc[cH-]c1 [IV-j] |  |  |  |  |  |  |  |  |  | 21.9 | SI (vs MC3T3) ([5]; MiapaCa2, blue light): 24.4; SI (vs MC3T3) ([5]; MiapaCa2, dark): 4.7; SI (vs NIH-3T3) ([5]; MiapaCa2, dark): 17.9; consumption of ABDA (1O2 production) [3]: fast complete consumption of ABDA; depletion of the ABDA absorbance at 380 nm (1O2 production) [3]: fast depletion of the ABDA absorbance at 380 nm
F[P-](F)(F)(F)(F)F.O=C(NCCCn1cc[n+]2[c]1[Ir-3]13([c]4ccccc4-c4sc5ccccc5[n+]41)([c]1ccccc1-c1sc4ccccc4[n+]13)[n+]1ccccc1-2)[c-]1cccc1.[Fe+2].c1cc[cH-]c1 [IV-k] |  |  |  |  |  |  |  |  |  | 6.9 | SI (vs MC3T3) ([5]; MiapaCa2, blue light): 15.9; SI (vs NIH-3T3) ([5]; MiapaCa2, blue light): 36.3; GI50 ([5]; MiapaCa2, blue light): 0.32 µM; SI (vs NIH-3T3) ([5]; MiapaCa2, dark): 8.5; GI50 ([5]; MiapaCa2, dark): 2.2 µM

— US20260209260A1, “VECTORIZED NHC IRIDIUM(III) COMPLEXES AND USE THEREOF IN PHOTODYNAMIC THERAPY AND/OR DIAGNOSTIC” (CENTRE NATIONAL DE LA RECHERCHE SCIENTIFIQUE, priority 2022, published 2026)
